Consider 33 molecules from US10214519B2, “Phosphatidylinositol 3-kinase inhibitors” (Gilead Sciences, Inc., priority 2016, dated 2019).

The target in the experiment is PI3Kβ (Homo sapiens (Human), UniProt P42338). The experiment is described as follows: PI3K isoform TR-FRET enzymatic assay (PI3Kβ). The class given is biochemical. As to conditions: 2× Km ATP, 30 minutes at 25° C. The essentials: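 IC50 came from four-parameter dose-response fits, normalized between DMSO and 1 μM wortmannin controls. The read-out was TR-FRET (615/665 nm) of PIP3 displacing fluorescent PIP3 from Europium GRP-1 after 10 mM EDTA termination. Compounds were incubated with purified heterodimeric PI3Kβ for 30 min at 25° C.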
Sequence of PI3Kβ (P42338 whole entry, canonical isoform): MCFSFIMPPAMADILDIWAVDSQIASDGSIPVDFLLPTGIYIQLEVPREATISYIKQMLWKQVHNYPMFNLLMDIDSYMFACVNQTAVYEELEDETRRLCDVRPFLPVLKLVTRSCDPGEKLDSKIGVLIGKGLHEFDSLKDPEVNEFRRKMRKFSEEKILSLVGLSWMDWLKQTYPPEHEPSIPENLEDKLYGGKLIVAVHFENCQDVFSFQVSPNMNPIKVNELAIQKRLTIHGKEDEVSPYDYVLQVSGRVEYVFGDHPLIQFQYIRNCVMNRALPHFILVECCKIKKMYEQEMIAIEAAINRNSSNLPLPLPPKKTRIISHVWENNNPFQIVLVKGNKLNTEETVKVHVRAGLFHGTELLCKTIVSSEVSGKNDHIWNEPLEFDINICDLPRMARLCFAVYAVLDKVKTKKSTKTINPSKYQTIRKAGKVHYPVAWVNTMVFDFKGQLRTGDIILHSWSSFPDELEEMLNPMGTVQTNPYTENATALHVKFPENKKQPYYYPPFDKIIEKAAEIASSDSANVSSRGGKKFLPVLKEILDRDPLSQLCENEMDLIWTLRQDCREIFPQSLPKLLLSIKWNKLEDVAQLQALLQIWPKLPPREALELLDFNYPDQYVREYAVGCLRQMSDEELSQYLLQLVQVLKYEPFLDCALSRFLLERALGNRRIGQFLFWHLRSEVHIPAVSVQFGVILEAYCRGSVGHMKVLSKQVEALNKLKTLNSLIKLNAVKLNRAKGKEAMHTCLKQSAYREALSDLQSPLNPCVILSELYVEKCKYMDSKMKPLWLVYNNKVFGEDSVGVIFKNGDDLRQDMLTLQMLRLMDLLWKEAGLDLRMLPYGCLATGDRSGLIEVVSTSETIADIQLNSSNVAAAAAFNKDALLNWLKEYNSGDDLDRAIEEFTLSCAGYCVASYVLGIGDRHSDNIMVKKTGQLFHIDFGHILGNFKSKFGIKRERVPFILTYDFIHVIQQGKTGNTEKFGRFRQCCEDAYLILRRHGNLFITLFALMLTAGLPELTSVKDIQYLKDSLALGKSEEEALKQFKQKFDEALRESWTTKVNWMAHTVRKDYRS
Sequence of PI3Kβ (P27986 whole entry partner, canonical isoform): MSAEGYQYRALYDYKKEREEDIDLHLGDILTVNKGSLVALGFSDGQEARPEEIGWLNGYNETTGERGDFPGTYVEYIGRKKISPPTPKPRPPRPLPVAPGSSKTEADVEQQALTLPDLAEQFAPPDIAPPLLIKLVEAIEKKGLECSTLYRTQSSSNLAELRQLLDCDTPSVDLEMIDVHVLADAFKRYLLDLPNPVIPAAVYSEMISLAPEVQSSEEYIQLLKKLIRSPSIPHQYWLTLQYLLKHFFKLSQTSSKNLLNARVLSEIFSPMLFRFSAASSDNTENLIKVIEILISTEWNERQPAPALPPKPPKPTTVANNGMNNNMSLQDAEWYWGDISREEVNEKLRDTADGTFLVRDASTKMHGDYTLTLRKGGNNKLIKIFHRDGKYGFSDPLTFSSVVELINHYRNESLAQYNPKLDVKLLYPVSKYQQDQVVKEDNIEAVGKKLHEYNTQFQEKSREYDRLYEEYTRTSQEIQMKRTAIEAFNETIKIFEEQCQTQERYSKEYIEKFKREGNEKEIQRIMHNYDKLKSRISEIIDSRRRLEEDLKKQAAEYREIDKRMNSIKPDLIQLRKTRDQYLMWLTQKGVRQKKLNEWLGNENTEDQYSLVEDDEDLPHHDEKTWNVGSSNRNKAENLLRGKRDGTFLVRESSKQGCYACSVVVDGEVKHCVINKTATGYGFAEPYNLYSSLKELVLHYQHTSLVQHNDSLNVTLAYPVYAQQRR

Regarding `Cc1cc(-n2c(C)nc3c(-c4cnc[nH]4)cc(N4CCOCC4)cc32)c2cccc(F)c2n1` [Example 210, 4-[3-(8-fluoro-2-methylquinolin-4-yl)-7-(1H-imidazol-5-yl)-2-methylbenzimidazol-5-yl]morpholine], the half-maximal inhibitory concentration (IC50) came out at 0.027 µM.

For the molecule `CCc1nc2c(-c3ncco3)cc(N3CCOCC3)cc2n1-c1ccnc2c(F)cccc12` [Example 213, 4-[2-ethyl-3-(8-fluoroquinolin-4-yl)-7-(1,3-oxazol-2-yl)benzimidazol-5-yl]morpholine], the half-maximal inhibitory concentration (IC50) worked out at 0.016 µM. The figure for `Cc1cnc2c(C#N)cccc2c1-n1c(C)nc2c(-c3nnc[nH]3)cc(N3CCOCC3)cc21` [Example 156, 3-methyl-4-(2-methyl-6-morpholino-4-(4H-1,2,4-triazol-3-yl)-1H-benzo[d]imidazol-1-yl)quinoline-8-carbonitrile] is 0.02 µM; for `Cc1nc2c(-c3nnc[nH]3)cc(N3CCOCC3)cc2n1-c1ccnc2c(F)ccc(Cl)c12` [Example 126, 4-[3-(5-chloro-8-fluoroquinolin-4-yl)-2-methyl-7-(4H-1,2,4-triazol-3-yl)benzimidazol-5-yl]morpholine] it is 0.021 µM; for `Cc1ncc(-c2cc(N3CCOCC3)cc3c2nc(C)n3-c2ccnc3c(Cl)cccc23)[nH]1` [Example 201, 4-[3-(8-chloroquinolin-4-yl)-2-methyl-7-(2-methyl-1H-imidazol-5-yl)benzimidazol-5-yl]morpholine] it is 0.019 µM. For `CCCc1nc2c(-c3nnc[nH]3)cc(N3CCOCC3)cc2n1-c1ccnc2c(Cl)ccc(F)c12` [Example 48, 4-(1-(8-chloro-5-fluoroquinolin-4-yl)-2-propyl-4-(4H-1,2,4-triazol-3-yl)-1H-benzo[d]imidazol-6-yl)morpholine] the value was 0.018 µM; for `Cc1csc(-c2cc(N3CCOCC3)cc3c2nc(C)n3-c2ccnc3c(Cl)cccc23)n1` [Example 205, 4-[3-(8-chloroquinolin-4-yl)-2-methyl-7-(4-methyl-1,3-thiazol-2-yl)benzimidazol-5-yl]morpholine], 0.012 µM. The figure for `Cc1nc2c(-c3nnc[nH]3)cc(N3CCOCC3)cc2n1-c1c(F)cnc2ccccc12` [Example 153, 4-(1-(3-fluoroquinolin-4-yl)-2-methyl-4-(4H-1,2,4-triazol-3-yl)-1H-benzo[d]imidazol-6-yl)morpholine] is 0.12 µM; for `CCc1nc2c(-c3nnc(C)[nH]3)cc(N3CCOCC3)cc2n1-c1c(Cl)cnc2c(Cl)cccc12` (atropisomer, axis not shown) [Compound 349, 4-[3-(3,8-dichloroquinolin-4-yl)-2-ethyl-7-(5-methyl-4H-1,2,4-triazol-3-yl)benzimidazol-5-yl]morpholine] it is 0.439 µM; for `Cc1nc2c(-c3ccccc3)cc(N3CCOCC3)cc2n1-c1ccnc2c(Cl)cccc12` [Example 311, 4-(1-(8-chloroquinolin-4-yl)-2-methyl-4-phenyl-1H-benzo[d]imidazol-6-yl)morpholine] it is 0.047 µM. The molecule `Cc1nc2c(-c3nnc[nH]3)cc(N3CCOC[C@@H]3C)cc2n1-c1ccnc2c(Cl)cccc12` [Example 99, (3S)-4-[3-(8-chloroquinolin-4-yl)-2-methyl-7-(4H-1,2,4-triazol-3-yl)benzimidazol-5-yl]-3-methylmorpholine] displayed an IC50 of 0.033 µM. The IC50 values of the last two molecules are within 1.5-fold of each other.

Take `CCc1nc2c(-c3cnc(Cl)[nH]3)cc(N3CCOCC3)cc2n1-c1ccnc2c(F)ccc(F)c12` [Example 280, 4-[7-(2-chloro-1H-imidazol-5-yl)-3-(5,8-difluoroquinolin-4-yl)-2-ethylbenzimidazol-5-yl]morpholine]: the half-inhibitory concentration (IC50) was determined as 0.013 µM. On to `CCCc1nc2c(-c3cnc[nH]3)cc(N3CCOCC3)cc2n1-c1ccnc2c(Cl)cccc12` [Example 207, 4-[3-(8-chloroquinolin-4-yl)-7-(1H-imidazol-5-yl)-2-propylbenzimidazol-5-yl]morpholine], for which half-maximal inhibition (IC50) required 0.013 µM. For `Cc1nc2c(Cl)cccc2c(-n2c(C)nc3c(-c4nnc[nH]4)cc(N4CCOCC4)cc32)c1C` [Example 70, 4-[3-(8-chloro-2,3-dimethylquinolin-4-yl)-2-methyl-7-(4H-1,2,4-triazol-3-yl)benzimidazol-5-yl]morpholine] the value was 0.036 µM; for `CCCc1nc2c(-c3nnc(C)[nH]3)cc(N3CCOCC3)cc2n1-c1ccnc2c(Cl)cccc12` [Example 46, 4-(1-(8-chloroquinolin-4-yl)-4-(5-methyl-4H-1,2,4-triazol-3-yl)-2-propyl-1H-benzo[d]imidazol-6-yl)morpholine], 0.019 µM. Consider `CCc1nc2c(-c3ncco3)cc(N3CCOCC3)cc2n1-c1ccnc2c(F)ccc(F)c12` [Example 217, 4-[3-(5,8-difluoroquinolin-4-yl)-2-ethyl-7-(1,3-oxazol-2-yl)benzimidazol-5-yl]morpholine], for which the IC50 came out at 0.009 µM. The figure for `CCCc1nc2c(-c3cnc(Cl)[nH]3)cc(N3CCOCC3)cc2n1-c1ccnc2c(F)cccc12` [Example 305, 4-[7-(2-chloro-1H-imidazol-5-yl)-3-(8-fluoroquinolin-4-yl)-2-propylbenzimidazol-5-yl]morpholine] is 0.013 µM; for `Cc1cc(-n2c(C)nc3c(-c4nnc[nH]4)cc(N4CCOCC4)cc32)c2ccc(F)cc2n1` [Example 63, 4-[3-(7-fluoro-2-methylquinolin-4-yl)-2-methyl-7-(4H-1,2,4-triazol-3-yl)benzimidazol-5-yl]morpholine] it is 0.028 µM; for `Cc1nnc(-c2cc(N3CCOCC3)cc3c2ncn3-c2ccnc3c(Cl)c(F)ccc23)[nH]1` [Example 40, 4-(1-(8-chloro-7-fluoroquinolin-4-yl)-4-(5-methyl-4H-1,2,4-triazol-3-yl)-1H-benzo[d]imidazol-6-yl)morpholine] it is 0.022 µM. For `CCCc1nc2c(-c3nnc(Cl)[nH]3)cc(N3CCOCC3)cc2n1-c1ccnc2c(F)ccc(F)c12` [Example 182, 4-[7-(5-chloro-4H-1,2,4-triazol-3-yl)-3-(5,8-difluoroquinolin-4-yl)-2-propylbenzimidazol-5-yl]morpholine], half-maximal inhibition (IC50) was put at 0.034 µM. On to `c1ccc2c(-n3cnc4c(-c5nnc[nH]5)cc(N5CCOCC5)cc43)cc(-c3cn[nH]c3)nc2c1` [Example 381, 4-(1-(2-(1H-pyrazol-4-yl)quinolin-4-yl)-4-(4H-1,2,4-triazol-3-yl)-1H-benzo[d]imidazol-6-yl)morpholine], for which 0.024 µM corresponded to half-maximal inhibition (IC50). For `Fc1cccc2c(-n3c(C4CC4)nc4c(-c5ncco5)cc(N5CCOCC5)cc43)ccnc12` [Example 214, 4-[2-cyclopropyl-3-(8-fluoroquinolin-4-yl)-7-(1,3-oxazol-2-yl)benzimidazol-5-yl]morpholine] the value was 0.056 µM. For `Clc1ncc(-c2cc(N3CCOCC3)cc3c2nc(C2COC2)n3-c2ccnc3c(Cl)cccc23)[nH]1` [Example 291, 4-[7-(2-chloro-1H-imidazol-5-yl)-3-(8-chloroquinolin-4-yl)-2-(oxetan-3-yl)benzimidazol-5-yl]morpholine] the value was 0.027 µM. For `CCc1c(C)nc2ccccc2c1-n1cnc2c(-c3nc(C)n[nH]3)cc(N3CCOCC3)cc21` [Example 75, 4-[3-(3-ethyl-2-methylquinolin-4-yl)-7-(3-methyl-1H-1,2,4-triazol-5-yl)benzimidazol-5-yl]morpholine], half-maximal inhibition (IC50) required 0.029 µM. The figure for `Fc1ccc(F)c2c(-n3cnc4c(-c5nnc[nH]5)cc(N5CCOCC5)cc43)ccnc12` [Example 28, 4-(1-(5,8-difluoroquinolin-4-yl)-4-(4H-1,2,4-triazol-3-yl)-1H-benzo[d]imidazol-6-yl)morpholine] is 0.003 µM; for `Cc1nc2c(-c3cnn(C)c3)cc(N3CCOCC3)cc2n1-c1ccnc2c(Cl)cccc12` [Example 313, 4-(1-(8-chloroquinolin-4-yl)-2-methyl-4-(1-methyl-1H-pyrazol-4-yl)-1H-benzo[d]imidazol-6-yl)morpholine] it is 9.8 µM. For `Cc1nc2c(-c3nnc(Cl)[nH]3)cc(N3CCOCC3)cc2n1-c1ccnc2c(Cl)cccc12` [Example 178, 4-[3-(8-chloroquinolin-4-yl)-7-(5-chloro-4H-1,2,4-triazol-3-yl)-2-methylbenzimidazol-5-yl]morpholine] the value was 0.012 µM. Molecule `CCc1nc2c(-c3nnc(Cl)[nH]3)cc(N3CCOCC3)cc2n1-c1ccnc2c(Cl)c(F)ccc12` [Example 172, 4-(4-(5-chloro-4H-1,2,4-triazol-3-yl)-1-(8-chloro-7-fluoroquinolin-4-yl)-2-ethyl-1H-benzo[d]imidazol-6-yl)morpholine] gave an IC50 of 0.1 µM. For `Clc1cccc2c(-n3c(C4CC4)nc4c(-c5cnn[nH]5)cc(N5CCOCC5)cc43)ccnc12` [Example 378, 4-(1-(8-chloroquinolin-4-yl)-2-cyclopropyl-4-(1H-1,2,3-triazol-5-yl)-1H-benzo[d]imidazol-6-yl)morpholine] the value was 0.027 µM; for `Fc1ccc(Cl)c2nccc(-n3c(C4CC4)nc4c(-c5nccs5)cc(N5CCOCC5)cc43)c12` [Example 247, 4-(1-(8-chloro-5-fluoroquinolin-4-yl)-2-cyclopropyl-4-(thiazol-2-yl)-1H-benzo[d]imidazol-6-yl)morpholine], 0.012 µM. For `Cc1nc2c(-c3ncc[nH]3)cc(N3CCOCC3)cc2n1-c1ccnc2c(Cl)cccc12` [Example 175, 4-[3-(8-chloroquinolin-4-yl)-7-(1H-imidazol-2-yl)-2-methylbenzimidazol-5-yl]morpholine] the value was 0.01 µM; for `CCc1nc2c(-c3nnc(Cl)[nH]3)cc(N3CCOCC3)cc2n1-c1ccnc2c(F)ccc(F)c12` [Example 179, 4-[7-(5-chloro-4H-1,2,4-triazol-3-yl)-3-(5,8-difluoroquinolin-4-yl)-2-ethylbenzimidazol-5-yl]morpholine], 0.044 µM; for `Cc1cnc2c(C#N)cccc2c1-n1c(C)nc2c(-c3nnc[nH]3)cc(N3CCOCC3)cc21` (atropisomer, axis not shown) [Compound 375, 3-methyl-4-(2-methyl-6-morpholino-4-(4H-1,2,4-triazol-3-yl)-1H-benzo[d]imidazol-1-yl)quinoline-8-carbonitrile], 7.1 µM.
